9 compounds from PubChem BioAssay (NCI) can be followed below.

Holding throughout (experiment): NCI-60 cell line screen, 48 h
Experiment [1] has as its system M14 melanoma.
Experiment [2] concerns TK-10 renal.
The test system of experiment [3] is SNB-19 CNS.
Experiment [4] has as its system SNB-75 CNS.
Experiment [5] concerns RXF 393 renal.
The subject of experiment [6] is SK-MEL-28 melanoma.
Experiment [7] concerns UACC-257 melanoma.
The subject of experiment [8] is UO-31 renal.
The subject of experiment [9] is HT29 colon.
Experiment [10] relates to UACC-62 melanoma.

Several values for one entry are separate records, joined by “and”; a condition that tells them apart may be missing. Equal values may be shown once.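 Where inhibition never reached the appropriate level, the endpoint shown equals the highest concentration tested. Otherwise, values were interpolated linearly from a five-concentration, 48-hour dose response in 96-well plates. Here, GI50 denotes the concentration required for 50% inhibition of growth. TGI is the concentration that stops growth completely.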

Consider `CN(C)C(=O)C1CCC(=C2C(=O)OC(C)(C)OC2=O)N1C` (centres undefined), for which the TGI in experiment [1], in experiment [2], in [3], in experiment [4], in [5] and in experiment [6] was more than 100 µM in each case. Further, the TGI in [7], in [8], in experiment [9] and in experiment [10] was more than 100 µM each time.

Take `O=c1oc2ccc(Cl)cc2c(=O)n1-c1ccc(I)cc1F`: the GI50 in experiment [1] is 0.165 µM; in experiment [2], 0.605 µM; in experiment [3], 0.206 µM; in experiment [4], 0.2 µM; in [5], 0.339 µM; in experiment [6], 0.178 µM. Moreover, the GI50 in experiment [7] was 0.137 µM; in [8], 0.126 µM; in [9], 3.41 µM; in experiment [10] it was 0.104 µM. Besides, the TGI in experiment [1] is 1.4 µM; in [2] it was 11.4 µM; in experiment [3] it was more than 100 µM; in [4], 1.36 µM; in experiment [5], 1.57 µM; in [6], 2.01 µM. Further, the TGI in experiment [7] stood at 1.61 µM; in [8], 1.2 µM; in [9] it was 22.6 µM; in experiment [10], 0.788 µM.

On to `C/C(=N\NC(N)=O)C(CN(C)C)C(c1ccccc1)c1c(O)c2ccccc2oc1=O` (centres undefined), for which the TGI in experiment [1], in experiment [2], in experiment [3], in experiment [4], in experiment [5] and in [6] was more than 100 µM each time. Also, the TGI in experiment [7], in experiment [8], in experiment [9] and in [10] was more than 100 µM in each case.

As for `CCCCCc1c(C)[nH]c(/C=C2\N=C(c3ccc[nH]3)C=C2Oc2ccc(Cl)cc2)c1C`, the GI50 in experiment [1] was 0.0789 µM and 0.0203 µM; in experiment [2] it was 0.413 µM and 0.0539 µM; in experiment [3], 0.268 µM and 0.173 µM; in experiment [4] it was 0.112 µM and 0.0375 µM; in experiment [5] it was 0.0678 µM and 0.123 µM; in experiment [6], 0.169 µM and 0.0742 µM. Also, the GI50 in experiment [7] is 0.28 µM and 0.0706 µM; in experiment [8], 0.142 µM and 0.0599 µM; in [9] it was 0.0402 µM and 0.028 µM; in [10], 0.0418 µM and 0.0299 µM. Further, the TGI in experiment [2] is 5.45 µM and 0.921 µM; in experiment [3], 4.33 µM; in experiment [4] it was 0.553 µM and 0.431 µM; in experiment [5], 0.672 µM and 0.722 µM; in experiment [6], 1.53 µM and 0.943 µM; in experiment [7] it was 3 µM and 2.78 µM. The TGI in experiment [8] was 0.32 µM and 0.222 µM; in [9], 18.3 µM; in experiment [10], 0.163 µM and 0.0884 µM.

Regarding `Clc1ccc2nc(Oc3ccccc3)cnc2c1`, the GI50 was more than 100 µM in [1]; more than 100 µM in [2]; more than 100 µM in experiment [3]; 59 µM in experiment [4]; more than 100 µM in [5]; more than 100 µM in experiment [6]. Further, the GI50 in [7], in [8], in [9] and in experiment [10] was more than 100 µM in each case. Further, the TGI in [1], in experiment [2], in [3], in [4], in experiment [5] and in [6] was more than 100 µM throughout. Moreover, the TGI in [7], in experiment [8], in experiment [9] and in [10] was more than 100 µM each time.

`Cc1cccc(C(C)(C)C)c1NC(=O)C(=O)C(c1cnc2ccccc2n1)[N+](=O)[O-]` (centres undefined): the TGI in experiment [1], in experiment [2], in experiment [3], in experiment [4], in experiment [5] and in [6] was more than 100 µM each time. The TGI in [7], in experiment [8], in experiment [9] and in experiment [10] was more than 100 µM in each case.

Take `NCc1ccc(-n2c(-c3nonc3N)nc3cnccc32)cc1`: the GI50 in [1] was more than 25 µM; in [2], 0.385 µM; in experiment [3], more than 25 µM; in [4], 0.291 µM; in experiment [5], 1.76 µM; in [6] it was 11.4 µM. Besides, the GI50 in [7] is more than 25 µM; in experiment [8], 0.442 µM; in experiment [9] it was 7.58 µM; in [10], more than 25 µM. Moreover, the TGI is more than 25 µM in [1]; more than 25 µM in experiment [2]; more than 25 µM in experiment [3]; more than 25 µM in experiment [4]; 11.3 µM in experiment [5]; more than 25 µM in experiment [6]. Besides, the TGI in experiment [7], in [8], in [9] and in experiment [10] was more than 25 µM in each case.

For `Oc1cc(Cl)ccc1Oc1ccc(Cl)cc1Cl`, the GI50 in experiment [1] is 2.86 µM; in [2], 3.47 µM; in [3], 3.66 µM; in experiment [4], 2.31 µM; in experiment [5], 2.06 µM; in [6] it was 3.09 µM. Besides, the GI50 is 2.28 µM in [7], 2.76 µM in experiment [8], 3.27 µM in experiment [9] and 2.16 µM in [10]. Besides, the TGI is 7.24 µM in experiment [1]; 9.59 µM in experiment [2]; 13.7 µM in experiment [3]; 8.71 µM in experiment [4]; 5.09 µM in experiment [5]; 10.4 µM in experiment [6]. Also, the TGI worked out at 6.48 µM in [7], 12 µM in experiment [8], 10.2 µM in experiment [9] and 5 µM in experiment [10].

Turning to `C/C=C(/CCCCNCCCC)[Si](C)(C)C`, the TGI in [1] stood at 27.7 µM; in experiment [2] it was 28.6 µM; in [3], 31.8 µM; in experiment [4], 27 µM; in experiment [5], 21 µM; in [6] it was 29.4 µM. The TGI was determined as 30.3 µM in [7], 31.4 µM in [8], 14.7 µM in experiment [9] and 32.7 µM in experiment [10].
